Laboratory results as given in paper PMC9271048, “Probing strigolactone perception mechanisms with rationally designed small-molecule agonists stimulating germination of root parasitic weeds” (Nature Communications, 2022).
Like-named read-outs stand apart in the source and are kept apart here.

Tests used:
[1] = Chemical reactivity analysis (HPLC, methanol/PBS pH 7.4); format: physicochemical; details: for half-life at 0.5 mM: methanol/phosphate-buffered saline mixture, read-out: half-life time (t1/2), source data average (converted)
Method: Chemical reactivity is an important factor in the bioactivity of natural and synthetic SLs.
One hundred twenty microliters of sample solution was added to a solution of PBS (10 mM, pH 7.4, 810 μL) and methanol (270 μL). The solution was stirred vigorously for 30 s and then transferred to HPLC vial, and the vial was stored at 26 ± 1 °C. […] The analytical column was Extend-C18 (4.6 mm × 150 mm × 5 μm). The mobile phases were CH3CN and H2O (containing 0.1% HCO2H), VCH3CN:VH2O = 50:50, with a flow rate of 1 mL/min, and an injection volume of 5 μL. The percentage of remaining compounds in the solution was calculated from the peak area. The half-life times (t1/2) of samples were calculated.

[2] = target: T1, ShHTL7 (Striga hermonthica, UniProt A0A0M3PNA2); test: biochemical; format: binding
Method: We used a sensitive, high-throughput Surface plasmon resonance (SPR) method to examine the binding affinities of the 51 candidates to the recombinant ShHTL7 protein, which was immobilized on the CM5 sensor chip. rac-GR24 was used as a positive control.
The interactions of small molecules with recombinant ShHTL7 were evaluated using the Biacore T200 system (GE Healthcare, USA) at 25 °C[47]. The purified ShHTL7 protein was immobilized on a CM5 sensor chip using the standard amine coupling procedure. […] PBS-P (10 mM phosphate buffer, 2.7 mM KCl, 137 mM NaCl, 0.05% Surfactant P20) containing 0.5% DMSO was used as the running buffer. For the screening experiments, candidates with different structures at 50 μM in the running buffer were injected individually at a flow rate of 30 μL min^−1. For binding affinity studies, compounds with different concentrations in running buffer were used. During the experiments, both the contact and dissociation times were set as 1 min. Data analysis was performed using the Biacore Evaluation Software (T200 Version 2.0). The affinity values (KD) were obtained by the kinetics analysis or the steady-state affinity method.

[3] = target: T1, ShHTL7; test: ShHTL7-hydrolysis reaction analysis (HPLC); format: biochemical; details: 10 μM compound, 30 °C, 30 min; for relative percentage of hydrolysis by ShHTL7, source data average: Supplementary Figs. 11, 20a, 24a
Method: Compounds 4a, (R)- and (S)-4a, 4g-i, and rac-GR24 were dissolved in DMSO and prepared as stock solution ([…]) just before use. A 200 μL of the reaction solution consisting of PBS buffer (pH 7.3), 10 μM samples, and 10 μg recombinant ShHTL7 or its mutants was incubated at 30 °C for 30 min; with the reaction solution (200 μL) containing PBS buffer (pH 7.3) and 10 μM samples as the blank control[40],[52]. Subsequently, the reaction was terminated by adding 200 μL of methanol, and then the reaction mixture was shaken for 10 s and centrifuged at 5310 × g for 60 s. The supernatant was filtered and the remaining amount of samples was analyzed by HPLC. The relative percentages of hydrolysis were obtained by using the amount of compounds in blank control as reference.
Supplementary Fig. 11. Hydrolysis of 4a, (R)-4a, (S)-4a, 4g-i, and rac-GR24 by ShHTL7 at 30 °C for 30 min. The remaining amounts of compounds in recombinant ShHTL7 protein and buffer solution were determined by HPLC analysis. The relative percentages of hydrolysis were calculated by using the amount of compounds in the buffer as reference. The error bar indicates SD (n = 3 biologically independent experiments).
(§1) (1 picture or pasted object on this page, not shown here)

[4] = test system: ShHTLs (10 HTL proteins in S. hermonthica); test: YLG-based competition assay on HTL proteins of S. hermonthica; format: biochemical, Striga hermonthica; details: Supplementary Fig. 27
Text: In P. aegyptiaca, 5 KAI2s have been proposed as the SL receptors for the regulation of seed germination. […] The high sequence similarity may explain the consistency of these compounds in inducing germination in both S. hermonthica and P. aegyptiaca.
The excitation and emission wavelengths of YLG are 480 and 520 nm, respectively. We used a fluorescence spectrophotometer (CARY Eclipse) to detect the fluorescence intensity change of YLG during the enzymatic hydrolysis assay process. All the testing compounds and YLG were dissolved in DMSO and prepared as stock solutions just before use. […] The changes of fluorescence at 520 nm of each well were recorded every 1 min for 30 min. Using the reaction mixture without adding enzyme and tested compounds as the background control. After subtracting the background hydrolysis, a linear fluorescence increase in 8 min was used for further inspection. The IC50 values were determined via fitting relative inhibition percentages with the varying concentrations of compounds in Microsoft Excel.
Supplementary Fig. 27. Binding of compounds 4a, (R)- and (S)-4a, and 4g-i to the HTL proteins in S. hermonthica and KAI2 protein homologs in P. aegyptiaca. In the competitive inhibitory activity assay, YLG (3 µM) was used as the fluorogenic substrate. Error bar indicates SD (n = 3 biologically independent experiments).
as §1

[5] = Supplementary Fig. 10 source data, methanol/PBS pH 7.4, 26 °C
[6] = Supplementary Table 7, binding affinities between ShHTL7 and agonists by SPR, read-out: KD/μM
[7] = ShHTL2, YLG competition, read-out: IC50, replicate 1
[8] = ShHTL2, YLG competition, read-out: IC50, replicate 2
[9] = ShHTL2, YLG competition, read-out: IC50, replicate 3
[10] = ShHTL2, average of 3 replicates, read-out: IC50, average
[11] = ShHTL3, YLG competition, read-out: IC50, replicate 1
[12] = ShHTL3, YLG competition, read-out: IC50, replicate 2
[13] = ShHTL3, YLG competition, read-out: IC50, replicate 3
[14] = ShHTL3, average of 3 replicates, read-out: IC50, average
[15] = ShHTL4, YLG competition, read-out: IC50, replicate 1
[16] = ShHTL4, YLG competition, read-out: IC50, replicate 2
[17] = ShHTL4, YLG competition, read-out: IC50, replicate 3
[18] = ShHTL4, average of 3 replicates, read-out: IC50, average
[19] = ShHTL5, YLG competition, read-out: IC50, replicate 1
[20] = ShHTL5, YLG competition, read-out: IC50, replicate 2
[21] = ShHTL5, YLG competition, read-out: IC50, replicate 3
[22] = ShHTL5, average of 3 replicates, read-out: IC50, average
[23] = ShHTL6, YLG competition, read-out: IC50, replicate 1
[24] = ShHTL6, YLG competition, read-out: IC50, replicate 2
[25] = ShHTL6, YLG competition, read-out: IC50, replicate 3
[26] = ShHTL6, average of 3 replicates, read-out: IC50, average
[27] = ShHTL8, YLG competition, read-out: IC50, replicate 1
[28] = ShHTL8, YLG competition, read-out: IC50, replicate 2
[29] = ShHTL8, YLG competition, read-out: IC50, replicate 3
[30] = ShHTL8, average of 3 replicates, read-out: IC50, average
[31] = ShHTL9, YLG competition, read-out: IC50, replicate 1
[32] = ShHTL9, YLG competition, read-out: IC50, replicate 2
[33] = ShHTL9, YLG competition, read-out: IC50, replicate 3
[34] = ShHTL9, average of 3 replicates, read-out: IC50, average
[35] = ShHTL10, YLG competition, read-out: IC50, replicate 1
[36] = ShHTL10, YLG competition, read-out: IC50, replicate 2
[37] = ShHTL10, YLG competition, read-out: IC50, replicate 3
[38] = ShHTL10, average of 3 replicates, read-out: IC50, average
[39] = ShHTL11, YLG competition, read-out: IC50, replicate 1
[40] = ShHTL11, YLG competition, read-out: IC50, replicate 2
[41] = ShHTL11, YLG competition, read-out: IC50, replicate 3
[42] = ShHTL11, average of 3 replicates, read-out: IC50, average

T1 sequence (A0A0M3PNA2 entry or part of it): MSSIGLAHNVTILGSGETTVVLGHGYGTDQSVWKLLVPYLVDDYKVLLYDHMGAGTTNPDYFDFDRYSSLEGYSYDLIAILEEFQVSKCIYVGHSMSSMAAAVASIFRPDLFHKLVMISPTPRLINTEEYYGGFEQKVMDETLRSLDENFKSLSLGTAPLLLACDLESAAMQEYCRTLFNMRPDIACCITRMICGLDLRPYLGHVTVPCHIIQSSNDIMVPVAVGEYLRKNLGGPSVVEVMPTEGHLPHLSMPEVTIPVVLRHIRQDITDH

SMILES: CC1=C[C@H](OC(=O)N2CCN(C(=O)COc3ccc(Br)cc3C)CC2)OC1=O [(S)-4a]
- half-life at 0.5 mM [1, 5]: 7.71 h
- Kd [2, 6]: 0.79 ± 0.06 µM
- hydrolysis by ShHTL7 [3]: 40.1%
- relative percentage of hydrolysis by ShHTL7, source data average [3]: 40.0583%
- IC50 [4, 7]: 44 µM
- IC50 [4, 8]: 49.8 µM
- IC50 [4, 9]: 48.4 µM
- IC50 [4, 10]: 47.4 µM
- IC50 [4, 11]: 16.8 µM
- IC50 [4, 12]: 15.4 µM
- IC50 [4, 13]: 14.7 µM
- IC50 [4, 14]: 15.7 µM
- IC50 [4, 15]: 2.17 µM
- IC50 [4, 16]: 2.91 µM
- IC50 [4, 17]: 2.59 µM
- IC50 [4, 18]: 2.56 µM
- IC50 [4, 19]: 5.38 µM
- IC50 [4, 20]: 6.82 µM
- IC50 [4, 21]: 5.43 µM
- IC50 [4, 22]: 5.88 µM
- IC50 [4, 23]: 9.92 µM
- IC50 [4, 24]: 6.62 µM
- IC50 [4, 25]: 7.62 µM
- IC50 [4, 26]: 8.05 µM
- IC50 [4, 27]: 12 µM
- IC50 [4, 28]: 7.84 µM
- IC50 [4, 29]: 5.8 µM
- IC50 [4, 30]: 8.54 µM
- IC50 [4, 31]: 10.9 µM
- IC50 [4, 32]: 19 µM
- IC50 [4, 33]: 16.2 µM
- IC50 [4, 34]: 15.4 µM
- IC50 [4, 35]: 11.7 µM
- IC50 [4, 36]: 11.6 µM
- IC50 [4, 37]: 12.8 µM
- IC50 [4, 38]: 12 µM
- IC50 [4, 39]: 6.48 µM
- IC50 [4, 40]: 5.76 µM
- IC50 [4, 41]: 3.77 µM
- IC50 [4, 42]: 5.34 µM

SMILES: CC1=CC(OC(=O)N2CCN(C(=O)COc3ccc(Br)cc3C)CC2)CC1=O (stereo not drawn) [4g]
- reactivity in methanol/PBS ([1]; 1:3 methanol and PBS (10 mM) pH 7.4): no apparent hydrolysis was observed in 6 days
- half-life at 0.5 mM [1, 5]: > 144 h
- Kd [2]: 34.8 ± 3.9 µM
- relative percentage of hydrolysis by ShHTL7, source data average [3]: 10.7551%
- IC50 [4, 7]: 65.2 µM
- IC50 [4, 8]: 66 µM
- IC50 [4, 9]: 64.5 µM
- IC50 [4, 10]: 65.2 µM
- IC50 [4, 11]: 40.5 µM
- IC50 [4, 12]: 33.3 µM
- IC50 [4, 13]: 28.5 µM
- IC50 [4, 14]: 34.1 µM
- IC50 [4, 15]: 19.2 µM
- IC50 [4, 16]: 17.8 µM
- IC50 [4, 17]: 16.1 µM
- IC50 [4, 18]: 17.7 µM
- IC50 [4, 19]: 40.1 µM
- IC50 [4, 20]: 35.7 µM
- IC50 [4, 21]: 41.8 µM
- IC50 [4, 22]: 39.2 µM
- IC50 [4, 23]: 53 µM
- IC50 [4, 24]: 37.4 µM
- IC50 [4, 25]: 61.5 µM
- IC50 [4, 26]: 50.6 µM
- IC50 [4, 27]: 61 µM
- IC50 [4, 28]: 62 µM
- IC50 [4, 29]: 51.8 µM
- IC50 [4, 30]: 58.3 µM
- IC50 [4, 31]: 31.2 µM
- IC50 [4, 32]: 38.7 µM
- IC50 [4, 33]: 46.2 µM
- IC50 [4, 34]: 38.7 µM
- IC50 [4, 35]: 49.6 µM
- IC50 [4, 36]: 54.6 µM
- IC50 [4, 37]: 55.2 µM
- IC50 [4, 38]: 53.1 µM
- IC50 [4, 39]: 55.9 µM
- IC50 [4, 40]: 54.7 µM
- IC50 [4, 41]: 58.2 µM
- IC50 [4, 42]: 56.3 µM

SMILES: CC1=CC(OC(=O)N2CCN(C(=O)COc3ccc(Br)cc3C)CC2)N(C)C1=O (stereo not drawn) [4h]
- half-life time (t1/2) ([1]; 1:3 methanol and PBS (10 mM) pH 7.4, HPLC): 1.1 h
- half-life time (t1/2), source data average [1, 5]: 1.095 h
- Kd [2, 6]: 12.1 ± 0.94 µM
- relative percentage of hydrolysis by ShHTL7, source data average [3]: 12.2513%
- IC50 [4, 7]: 72.3 µM
- IC50 [4, 8]: 78.3 µM
- IC50 [4, 9]: 79.2 µM
- IC50 [4, 10]: 76.6 µM
- IC50 [4, 11]: > 100 µM
- IC50 [4, 12]: > 100 µM
- IC50 [4, 13]: > 100 µM
- IC50 [4, 14]: > 100 µM
- IC50 [4, 15]: 12.7 µM
- IC50 [4, 16]: 14.6 µM
- IC50 [4, 17]: 8.97 µM
- IC50 [4, 18]: 12.1 µM
- IC50 [4, 19]: 32.9 µM
- IC50 [4, 20]: 39.4 µM
- IC50 [4, 21]: 42.1 µM
- IC50 [4, 22]: 38.1 µM
- IC50 [4, 23]: > 100 µM
- IC50 [4, 24]: > 100 µM
- IC50 [4, 25]: > 100 µM
- IC50 [4, 26]: > 100 µM
- IC50 [4, 27]: 65.9 µM
- IC50 [4, 28]: 81.2 µM
- IC50 [4, 29]: 80.4 µM
- IC50 [4, 30]: 75.8 µM
- IC50 [4, 31]: > 100 µM
- IC50 [4, 32]: > 100 µM
- IC50 [4, 33]: > 100 µM
- IC50 [4, 34]: > 100 µM
- IC50 [4, 35]: 47.3 µM
- IC50 [4, 36]: 41.8 µM
- IC50 [4, 37]: 41.6 µM
- IC50 [4, 38]: 43.6 µM
- IC50 [4, 39]: > 100 µM
- IC50 [4, 40]: > 100 µM
- IC50 [4, 41]: > 100 µM
- IC50 [4, 42]: > 100 µM
